Results reported in patent US9452220B2, “Coupling compounds of NSAID anti-inflammatory and analgesic drugs and EGFR kinase inhibitors, synthesis methods and applications thereof” (Guangzhou Institutes of Biomedicine and Health, Chinese …, priority 2014, dated 2016).
pEC50: −log10 of the molar value.

Legend:
[1] = test system: HCC827 human non-small cell lung cancer cells; assay: MTT cell activity assay, HCC827 cells; type: cell-based; conditions: 72 hrs with compound, absorption at 570 nm or 490 nm
Protocol: (§1) H1975/HCC827: human non-small cell lung cancer cells, PBS, MTT, DMEM culture medium, pancreatin, a multichannel pipette, a vortex mixer, a microplate reader, a biosafety cabinet, a 5% CO2 cell culture incubator, a cell counter, a microscope, a thermostatic water bath, and a 96-pore plate.
(§2) 1. H1975/HCC827 cells was cleaned with PBS, digested with pancreatin, centrifuged at room temperature for 5 min at 1000 rpm, re-suspended with an appropriate amount of culture medium, and counted by a cell counting plate. The cells were inoculated to the 96-pore plate by the multichannel pipette at 1000-2000 cells/pore/100 μl, with 6 complex pores for each concentration and totally 6 concentration gradients. The basis of the number of cells: upon final test, OD570 was between 0.2-0.8 (Lambert-Beer's Law).
(§3) 2. The compounds were prepared into […] of mother liquor by using DMSO. 10 μl of mother liquor was added into 90 μl of DMSO, and the mixture was uniformly mixed by the vortex mixer and diluted in turn for 5 times to obtain DMSO stock solution. The stock solution was stored at 4° C. for standby. The stock solution was uniformly mixed again before use and then added into a complete culture medium in 1:500 to serve as working solution, and then the mixture was mixed uniformly by the vortex mixer. The working solution needs to be immediately used after prepared well to avoid precipitation after long-term storage.
(§4) 3. The 96-pore plate was cultured in the cell incubator for 24 hrs, then added with 100 μl of the working solution prepared from the compounds, and continued to be cultured together for 72 hrs.
(§5) 4. The upper-layer culture medium was removed carefully, then 100 μl of culture medium containing MTT (0.5 mg/ml) was added again, and the culture medium was placed in the incubator for 4 hrs. The culture medium was removed completely, then 100 μl of DMSO was added, and the mixture was shocked uniformly. Preparation of MTT: 1.25 g of MTT was added into 250 ml of PBS, and then the mixture was mixed uniformly and stored away from light at 4° C.
(§6) 5. The light absorption value at 570 nm or 490 nm was detected by the microplate reader. EC50 was calculated and an added value curve was drawn by Graphpad.

[2] = test system: H1975 human non-small cell lung cancer cells; assay: MTT cell activity assay, H1975 cells; type: cell-based; conditions: NCI-H1975, 72 hrs with compound, absorption at 570 nm or 490 nm
Protocol: as §1, §2, §3, §4, §5, §6

Row | pEC50 [1] | pEC50 [2] | SMILES
1 | 6.21 | 4.48 | C#Cc1cccc(Nc2ncnc3cc(OCCOC)c(OCCOC(=O)C4=Cc5cc(Cl)c(C(C)(C)C)cc5OC4C(F)(F)F)cc23)c1 (stereo not shown) [Embodiment 4]
2 | 6.55 | 5.06 | C#Cc1cccc(Nc2ncnc3cc(OCCOC(=O)C(C)c4ccc(CC(C)C)cc4)c(OCCOC)cc23)c1 (stereo not shown) [Embodiment 10, 2-(4-(3-ethynylaniline)-6-(2-methoxyethoxy)quinazoline-7-oxy)ethyl-2-(4-isobutylphenyl)propanoic acid]
3 | 7.05 | 4.57 | C#Cc1cccc(Nc2ncnc3cc(OCCOC(=O)C(C)c4ccc5cc(OC)ccc5c4)c(OCCOC)cc23)c1 (stereo not shown) [Embodiment 13, 2-(4-(3-ethynylaniline)-6-(2-methoxyethoxy)quinazoline-7-oxy)ethyl-2-(6-methoxylnaphthyl-2-ene)propanoic acid]
4 | 6.20 | 4.02 | C#Cc1cccc(Nc2ncnc3cc(OCCOC(=O)Cc4c(C)n(C(=O)c5ccc(Cl)cc5)c5ccc(OC)cc45)c(OCCOC)cc23)c1 [Embodiment 14, 3-(4-(3-ethynylaniline)-6-(2-methoxyethoxy)quinazoline-7-oxy)ethyl-2-(1-(4-chlorobenzoyl)-5-methoxy-2-methyl-1H-indol-3-ene)acetic acid]
5 | 5.82 |  | C#Cc1cccc(Nc2ncnc3cc(OCCOC(=O)C(C)c4ccc(C(=O)c5ccccc5)cc4)c(OCCOC(=O)C(C)c4ccc(C(=O)c5ccccc5)cc4)cc23)c1 (stereo not shown) [Embodiment 17, 2,2′-(4-(3-ethynylaniline)quinazoline-6,7-diene)di(oxy)bis(ethyl-2,1-diene)-bis(2-(4-benzoylphenyl)propanoic acid)]
6 |  | 3.09 | C#Cc1cccc(Nc2ncnc3cc(OCCOC(=O)C(C)c4ccc(CC(C)C)cc4)c(OCCOC(=O)C(C)c4ccc(CC(C)C)cc4)cc23)c1 (stereo not shown) [Embodiment 18, 2,2′-(4-(3-ethynylaniline)quinazoline-6,7-diene)di(oxy)bis(ethyl-2,1-diene)-bis(2-(4-isobutylphenyl)propanoic acid)]
7 | 5.98 | 4.12 | C#Cc1cccc(Nc2ncnc3cc(OCCOC(=O)C4=Cc5cc(Cl)c(C(C)(C)C)cc5OC4C(F)(F)F)c(OCCOC(=O)C4=Cc5cc(Cl)c(C(C)(C)C)cc5OC4C(F)(F)F)cc23)c1 (stereo not shown) [Embodiment 21, 2,2′-(4-(3-ethynylaniline)quinazoline-6,7-diene)di(oxy)bis(ethyl-2,1-diene)-bis(7-7-tert-butyl-6-chloro-2-(trifluoromethyl)-2H-pyran-3-carboxylic acid)]
8 | 5.44 | 4.26 | C#Cc1cccc(Nc2ncnc3cc(OCCOC(=O)Cc4c(C)n(C(=O)c5ccc(Cl)cc5)c5ccc(OC)cc45)c(OCCOC(=O)Cc4c(C)n(C(=O)c5ccc(Cl)cc5)c5ccc(OC)cc45)cc23)c1 [Embodiment 22, 2,2′-(4-(3-ethynylaniline)quinazoline-6,7-diene)di(oxy)bis(ethyl-2,1-diene)-bis(2-(1-(4-chlorobenzoyl)-5-methoxy-2-methyl-1H-indol-3-ene)acetic acid)]
9 | 5.94 | 4.28 | C#Cc1cccc(Nc2ncnc3cc(OCCOC(=O)c4ccc(C(=O)Nc5ccc6c(c5)C(C)(C)CCC6(C)C)cc4)c(OCCOC(=O)c4ccc(C(=O)Nc5ccc6c(c5)C(C)(C)CCC6(C)C)cc4)cc23)c1 [Embodiment 24, 2,2′-(4-(3-ethynylaniline)quinazoline-6,7-diene)di(oxy)bis(ethyl-2,1-diene)-bis(4-(5,5,8,8-tetramethyl-5,6,7,8-tetralin-2-alkenylcarbamyl)benzoic acid)]

Row | SMILES | pEC50 [1] | pEC50 [2]
10 | C#Cc1cccc(Nc2ncnc3cc(OCCOC)c(OCCOC(=O)c4ccccc4OC(C)=O)cc23)c1 [Embodiment 3, 2-(4-(3-ethynylaniline)-7-(2-methoxyethoxy)quinazoline-6-oxy)ethyl-2-acetoxybenzoic acid] | 6.80 | 4.91
11 | C#Cc1cccc(Nc2ncnc3cc(OCCOC(=O)c4ccccc4OC(C)=O)c(OCCOC)cc23)c1 [Embodiment 11, 2-(4-(3-ethynylaniline)-6-(2-methoxyethoxy)quinazoline-7-oxy)ethyl-2-acetoxyl benzoic acid] | 6.89 | 4.86
12 | C#Cc1cccc(Nc2ncnc3cc(OCCOC(=O)c4ccccc4OC(C)=O)c(OCCOC(=O)c4ccccc4OC(C)=O)cc23)c1 [Embodiment 19, 2,2′-(4-(3-ethynylaniline)quinazoline-6,7-diene)di(oxy)bis(ethyl-2,1-diene)-bis(2-acetoxylbenzoic acid)] | 6.70 | 4.38
